Results published in patent publication US6469149B1 (priority 1997, dated 2002).

Legend:
[1] = target: T1, L-galactono-γ-lactone dehydrogenase (Brassica oleracea, UniProt O47881); assay: GLDase activity in the presence of lycorine (reduction of cytochrome c, absorption at 550 nm); assay type: biochemical, cauliflower (Brassica olecera var. botrytis); design: Activity of the enzyme expressed in increase in absorption at 550 nm/second: scale not given here
T1 construct: The resulting mature protein of 509 amino acids has a calculated molecular mass of 57,837 Da; from tissue; host or cells: cauliflower florets (mitochondrial pellet, acetone-precipitated extract; DEAE, Phenyl Sepharose and Sephacryl gel filtration fractions)
T1 sequence (O47881 92-600): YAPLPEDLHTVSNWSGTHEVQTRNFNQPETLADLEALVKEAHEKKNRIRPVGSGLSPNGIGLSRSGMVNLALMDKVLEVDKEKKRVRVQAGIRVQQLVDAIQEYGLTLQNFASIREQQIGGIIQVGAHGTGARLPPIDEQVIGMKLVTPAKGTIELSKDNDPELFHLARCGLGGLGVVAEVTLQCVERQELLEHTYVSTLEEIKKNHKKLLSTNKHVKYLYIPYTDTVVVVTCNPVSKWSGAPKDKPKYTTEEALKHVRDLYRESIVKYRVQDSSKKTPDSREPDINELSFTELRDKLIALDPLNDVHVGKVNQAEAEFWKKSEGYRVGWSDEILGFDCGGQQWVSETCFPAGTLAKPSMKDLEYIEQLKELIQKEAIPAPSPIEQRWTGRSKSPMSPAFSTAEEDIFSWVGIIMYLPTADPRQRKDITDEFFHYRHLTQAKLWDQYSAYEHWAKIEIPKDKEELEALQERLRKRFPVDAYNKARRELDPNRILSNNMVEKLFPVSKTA
Description: The GLDase activity of the fractions was is determined spectrophotometrically by monitoring the L-galactono-γ-lactone dehydrogenase-dependent reduction of cytochrome c at 22° C. A typical reaction mixture contained the enzyme extract, 1.5 mg/ml cytochrome c and 4.2 mM L-galactono-γ-lactone in 0.05 M Tris-HCl buffer (pH 8.4). Reduction of cytochrome c was monitored by determining the absorption increase at 550 nm. Under these conditions the speed of the reaction was linear in respect of time for an initial period of 15 minutes. One unit of enzyme activity was defined as the quantity of enzyme reducing 2 μmol of cytochrome C per minute.
Lycorine was isolated from the plant Crinum asiaticum and the identity of the isolated product was verified by NMR, electron spray mass spectrometry HPLC analysis and capillary electrophoresis. Fractions of L-galactono-γ-lactone dehydrogenase activity isolated from the gel filtration column were tested for their activity in two different buffers in the presence of 5 or 50 μM lycorine (see table 3).

[2] = test system: ascorbic acid synthesis; conditions: literature statement; cited from earlier work
[3] = target: T2, L-galactono-γ-lactone dehydrogenase (Arabidopsis thaliana, UniProt Q9SU56); conditions: literature (De Tullio et al. 1994; Arrigoni et al. 1996); cited from earlier work
T2 sequence (Q9SU56 102-610): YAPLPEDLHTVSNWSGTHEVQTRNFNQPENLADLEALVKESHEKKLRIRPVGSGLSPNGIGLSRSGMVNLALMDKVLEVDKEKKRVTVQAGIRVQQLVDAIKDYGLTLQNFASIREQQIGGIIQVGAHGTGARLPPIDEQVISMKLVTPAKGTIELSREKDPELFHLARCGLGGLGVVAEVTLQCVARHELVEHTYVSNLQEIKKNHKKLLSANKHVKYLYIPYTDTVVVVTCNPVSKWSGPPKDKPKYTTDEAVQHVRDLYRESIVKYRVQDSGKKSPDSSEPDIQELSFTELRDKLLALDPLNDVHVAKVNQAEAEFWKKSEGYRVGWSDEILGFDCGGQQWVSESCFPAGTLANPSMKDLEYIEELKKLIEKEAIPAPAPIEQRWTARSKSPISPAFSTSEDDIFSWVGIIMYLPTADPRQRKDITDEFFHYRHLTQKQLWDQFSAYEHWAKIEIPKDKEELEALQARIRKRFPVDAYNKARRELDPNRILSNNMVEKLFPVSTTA

For `O[C@H]1[C@H]2c3cc4c(cc3CN3CCC(=C[C@@H]1O)[C@H]23)OCO4` [lycorine], the “Activity of the enzyme expressed in increase in absorption at 550 nm/second” value ([1]; 5 μM lycorine, 75 mM PO4 pH 7.0, 0 μM control 0.980) was 0.857 absorption at 550 nm/second, the “Activity of the enzyme expressed in increase in absorption at 550 nm/second” value ([1]; 5 μM lycorine, 75 mM PO4 pH 7.5, 0 μM control 1.385) was 1.372 absorption at 550 nm/second and the “Activity of the enzyme expressed in increase in absorption at 550 nm/second” value ([1]; 5 μM lycorine, 75 mM PO4 pH 8, 0 μM control 1.882) was 1.690 absorption at 550 nm/second. The “Activity of the enzyme expressed in increase in absorption at 550 nm/second” value ([1]; 5 μM lycorine, 75 mM Tris pH 7.4, 0 μM control 3.627) was 3.927 absorption at 550 nm/second, the “Activity of the enzyme expressed in increase in absorption at 550 nm/second” value ([1]; 5 μM lycorine, 75 mM Tris pH 8.2, 0 μM control 6.365) was 6.400 absorption at 550 nm/second and the “Activity of the enzyme expressed in increase in absorption at 550 nm/second” value ([1]; 5 μM lycorine, 75 mM Tris pH 8.9, 0 μM control 5.438) was 5.199 absorption at 550 nm/second. The “Activity of the enzyme expressed in increase in absorption at 550 nm/second” value ([1]; 50 μM lycorine, 75 mM PO4 pH 7.0, 0 μM control 0.980) was 0.842 absorption at 550 nm/second, the “Activity of the enzyme expressed in increase in absorption at 550 nm/second” value ([1]; 50 μM lycorine, 75 mM PO4 pH 7.5, 0 μM control 1.385) was 1.254 absorption at 550 nm/second and the “Activity of the enzyme expressed in increase in absorption at 550 nm/second” value ([1]; 50 μM lycorine, 75 mM PO4 pH 8, 0 μM control 1.882) was 1.768 absorption at 550 nm/second. For the same molecule, the “Activity of the enzyme expressed in increase in absorption at 550 nm/second” value ([1]; 50 μM lycorine, 75 mM Tris pH 7.4, 0 μM control 3.627) was 3.743 absorption at 550 nm/second, the “Activity of the enzyme expressed in increase in absorption at 550 nm/second” value ([1]; 50 μM lycorine, 75 mM Tris pH 8.2, 0 μM control 6.365) was 6.127 absorption at 550 nm/second and the “Activity of the enzyme expressed in increase in absorption at 550 nm/second” value ([1]; 50 μM lycorine, 75 mM Tris pH 8.9, 0 μM control 5.438) was 5.507 absorption at 550 nm/second. For the same molecule, the “Effect on GLDase activity” value ([1]; 100 μM lycorine, additional tests) was “did not show a decrease in activity”, the “Effect on GLDase activity after pre-incubation” value ([1]; pre-incubation of one hour of the enzyme with lycorine) was “did not influence the enzyme activity” and the “Sensitivity of the isolated GLDase to lycorine” value ([1]; up to a concentration of 50 μM) was “lycorine-insensitive”. The “Concentration at which ascorbic acid synthesis is inhibited” value [2] was at least 1 µM and the “Inhibition of L-galactono-γ-lactone dehydrogenase” value [3] was “inhibited”.
